target: T1, human M4 muscarinic acetylcholine receptor (Homo sapiens, UniProt P08173); assay: human FLIPR-based M4 PAM assay (calcium mobilization, CHO-K1 cells with human M4 receptor and Gαqi5); format: cell-based; settings: inflection point (IP) of dose response curve, acetylcholine added at 20% of maximum response, read-out: M4 FLIPPR Hu IP
T1 construct: expressed in transfected cells; host or cells: CHO-K1
T1 sequence (P08173 1-479): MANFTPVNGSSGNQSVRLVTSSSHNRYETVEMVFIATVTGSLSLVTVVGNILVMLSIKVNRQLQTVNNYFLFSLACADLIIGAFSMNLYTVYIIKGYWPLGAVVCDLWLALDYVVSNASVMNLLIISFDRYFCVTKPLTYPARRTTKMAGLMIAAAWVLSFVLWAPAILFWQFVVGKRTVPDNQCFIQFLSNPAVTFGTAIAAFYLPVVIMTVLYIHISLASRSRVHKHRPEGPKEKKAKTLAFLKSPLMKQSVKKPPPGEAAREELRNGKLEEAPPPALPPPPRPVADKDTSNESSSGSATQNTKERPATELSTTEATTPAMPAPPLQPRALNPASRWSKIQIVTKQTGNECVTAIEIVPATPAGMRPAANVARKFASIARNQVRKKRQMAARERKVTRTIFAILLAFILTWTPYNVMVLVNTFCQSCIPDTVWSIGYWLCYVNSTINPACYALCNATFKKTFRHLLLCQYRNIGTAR
Method: In a typical experiment the M4 muscarinic acetylcholine receptor modulating activity of the compounds of the present invention was determined in accordance with the following experimental method. CHO-K1 cells stably transfected with human M4 receptor and chimeric G-protein Gαqi5 (Coward P, et al., Analytical Biochemistry, 270:242-248 (1999)) are thawed from liquid N2 storage, resuspended in growth medium, plated in black, clear bottom 384 well plates, and incubated 16-20 hours at 37° C., 5% CO2. On the day of assay, growth medium is removed, the cells are washed 2 times with wash buffer, and cells are incubated in dye loading buffer at 37° C., 5% CO2 for ˜1 hour. Following dye loading the cell plates are placed in a FLIPR Tetra instrument and while monitoring dye fluorescence (excitation […]), 10 uL of test substance at increasing concentrations is added, and fluorescence values are recorded for 4 min. Next, 10 uL of acetylcholine is added (final concentration calculated so as to achieve 20% of the maximum acetycholine response), and the fluorescence reading is continued for 3.5 min. In some cases, a third addition of acetylcholine (final concentration calculated to achieve 70% of the maximal acetylcholine response) is performed. The resulting dose response curves are fit to a 4 parameter logistic equation and the final result is determined as the inflection point (IP) of the curve
CHO-K1 cells stably transfected with human M4 receptor and chimeric G-protein Gαqi5 are thawed from liquid N2 storage, resuspended in growth medium, plated in black, clear bottom 384 well plates, and incubated 16-20 hours at 37° C., 5% CO2.
On the day of assay, growth medium is removed, the cells are washed 2 times with wash buffer, and cells are incuabted in dye loading buffer at 37° C., 5% CO2 for ˜1 h. Following dye loading the cell plates are placed in a FLIPR Tetra instrument and while monitoring dye fluorescence ([…]), 10 uL of test substance at increasing concentrations is added, and fluorescence values are recorded for 4 min. Next, 10 uL of acetylcholine is added (final concentration calculated so as to achieve 20% of the maximum acetycholine response), and the fluorescence reading is continued for 3.5 min. In some cases, a third addition of acetylcholine (final concentration calculated to achieve 70% of the maximal acetylcholine response) is performed.

**Q.** With `Cc1cn2ccc(-c3nc(C#N)ccc3-c3cnc(CC4CC4)o3)cc2n1` [Example 60, 5-(2-(cyclopropylmethyl)oxazol-5-yl)-6-(2-methylimidazo[1,2-a]pyridin-7-yl)picolinonitrile] as the compound, how does the EC50 read?
**A.** 79 nM

**Q.** Which EC50 does the source give for `CN1Cc2ncc(-c3nc4c(cc3-c3cnc(CC5(C)CCCC5)o3)CCC4)cc2C1=O` [Example 17, 6-methyl-3-(3-(2-((1-methylcyclo-pentyl)methyl)-oxazol-5-yl)-6,7-dihydro-5H-cyclo-penta[b]pyridin-2-yl)-6,7-dihydro-5H-pyrrolo[3,4-b]-pyridin-5-one] here?
**A.** 26 nM

**Q.** With `CN1Cc2ccc(-c3nc(C#N)ccc3-c3cnc(CC4(O)CCCC4)o3)cc2C1=O` [Example 81, 5-(2-((1-hydroxycyclopentyl)methyl)oxazol-5-yl)-6-(2-methyl-3-oxoisoindolin-5-yl) picolinonitrile] as the compound, how does the EC50 read?
**A.** 184 nM

**Q.** Which EC50 does the source give for `CN1Cc2ccc(-c3nc4c(cc3-c3cnc(CC5(C)CCCC5)o3)CCC4)cc2C1=O` [Example 4, 2-methyl-6-(3-(2-((1-methylcyclopentyl)methyl)oxazol-5-yl)-6,7-dihydro-5H-cyclopenta[b]pyridin-2-yl)isoindolin-1-one] here?
**A.** 30 nM

**Q.** Which EC50 does the source give for `CC(C)(F)CCc1ncc(-c2ccc(C#N)nc2-c2ccc3cccnc3c2)o1` [Example 103, 5-(2-(3-fluoro-3-methylbutyl)oxazol-5-yl)-6-(quinolin-7-yl)picolinonitrile] here?
**A.** 86 nM

**Q.** `Cc1nc2cc(-c3nc(C#N)ccc3-c3cnc(CCC(F)(F)F)o3)ccc2n1C` [Example 113, 6-(1,2-dimethyl-1H-benzo[d]imidazol-5-yl)-5-(2-(3,3,3-trifluoropropyl)oxazol-5-yl)picolinonitrile] was tested. Which EC50 did it give?
**A.** 118 nM

**Q.** For `CN1Cc2ncc(-c3nc(C#N)ccc3-c3cnc(CC(C)(C)C)o3)cc2C1=O` [Example 18, 6-(6-methyl-5-oxo-6,7-dihydro-5H-pyrrolo[3,4-b]-pyridin-3-yl)-5-(2-neopentyloxazol-5-yl)picolinonitrile], which EC50 is on record?
**A.** 150 nM

**Q.** Which EC50 does the source give for `N#Cc1ccc(-c2cnc(CC3CCCC3)o2)c(N2CCn3ccnc3C2)n1` [Example 55, 5-(2-(cyclopentylmethyl)oxazol-5-yl)-6-(5,6-dihydroimidazo[1,2-a]pyrazin-7(8H)-yl)picolinonitrile] here?
**A.** 8 nM

**Q.** With `CN1Cc2ccc(-c3nc(F)ccc3-c3cnc(CC4(C)CCCC4)o3)cc2C1=O` [Example 8, 6-(6-fluoro-3-(2-((1-methylcyclo-pentyl)methyl)oxazol-5-yl)pyridin-2-yl)-2-methylisoindolin-1-one] as the compound, how does the EC50 read?
**A.** 44 nM

**Q.** `CN1Cc2ncc(-c3nc(C#N)ccc3-c3cnc(CC4(C)CCCC4)o3)cc2C1=O` [Example 12, 6-(6-methyl-5-oxo-6,7-dihydro-5H-pyrrolo[3,4-b]-pyridin-3-yl)-5-(2-((1-methyl-cyclopentyl)-methyl)oxazol-5-yl)picolinonitrile] was tested. Which EC50 did it give?
**A.** 34 nM

**Q.** Which EC50 does the source give for `Cc1nc(CC2CCCC2)oc1-c1ccc(C#N)nc1-c1ccc2cccnc2c1` [Example 64, 5-(2-(cyclopentylmethyl)-4-methyloxazol-5-yl)-6-(quinolin-7-yl)picolinonitrile] here?
**A.** 49 nM

**Q.** `CC(C)(C)Cc1ncc(-c2ccc3cncn3c2-c2ccn3ccnc3c2)o1` [Example 36, 5-(5-(imidazo[1,2-a]-pyridin-7-yl)imidazo-[1,5-a]pyridin-6-yl)-2-neopentyloxazole] was tested. Which EC50 did it give?
**A.** 75 nM

**Q.** For `Cc1cn2ccc(-c3nc(C#N)ccc3-c3cnc(CCC(F)(F)C(F)(F)F)o3)cc2n1` [Example 108, 6-(2-methylimidazo [1,2-a]pyridin-7-yl)-5-(2-(3,3,4,4,4-pentafluorobutyl)oxazol-5-yl) picolinonitrile], which EC50 is on record?
**A.** 133 nM

**Q.** Which EC50 does the source give for `COc1cc2ccc(-c3nc(C)ccc3-c3cnc(C(F)(F)C4CCCC4)o3)cc2nn1` [Example 102, 2-(cyclopentyldifluoromethyl)-5-(2-(3-methoxycinnolin-7-yl)-6-methylpyridin-3-yl)oxazole] here?
**A.** 51 nM

**Q.** Which EC50 does the source give for `N#Cc1ccc(-c2cnc(CCC(F)(F)C(F)(F)F)o2)c(-c2ccn3ccnc3c2)n1` [Example 109, 6-(imidazo[1,2-a]pyridin-7-yl)-5-(2-(3,3,4,4,4-pentafluorobutyl)oxazol-5-yl) picolinonitrile] here?
**A.** 105 nM

**Q.** For `CC1(Cc2ncc(-c3ccc(C#N)nc3-c3cnc4c(c3)C(=O)N(CCF)C4)o2)CCCC1` [Example 96, 6-(6-(2-fluoroethyl)-5-oxo-6,7-dihydro-5H-pyrrolo[3,4-b]pyridin-3-yl)-5-(2-((1-methylcyclopentyl)methyl)oxazol-5-yl)picolinonitrile], which EC50 is on record?
**A.** 52 nM

**Q.** `CC(Cc1ncc(-c2ccc(C#N)nc2-c2ccn3ccnc3c2)o1)C(F)F` (centres unmarked) [Example 94, 5-(2-(3,3-difluoro-2-methylpropyl)oxazol-5-yl)-6-(imidazo[1,2-a]pyridin-7-yl) picolinonitrile] was tested. Which EC50 did it give?
**A.** 137 nM

**Q.** Which EC50 does the source give for `Cc1ccc(-c2cnc(CC3CCCC3)o2)c(N2CCn3ccnc3C2)n1` [Example 56, 2-(cyclopentylmethyl)-5-(2-(5,6-dihydroimidazo[1,2-a]pyrazin-7(8H)-yl)-6-methylpyridin-3-yl)oxazole] here?
**A.** 11 nM

**Q.** `CC(C)(C)Cc1ncc(-c2ccc(C(F)F)nc2-c2ccn3cnnc3c2)o1` [Example 30, 5-(2-([1,2,4]triazolo-[4,3-a]pyridin-7-yl)-6-(difluoromethyl)-pyridin-3-yl)-2-neo-pentyloxazole] was tested. Which EC50 did it give?
**A.** 86 nM

**Q.** How did the EC50 turn out when `COc1cc2ccc(-c3nc(C)ccc3-c3cnc(Cc4ccccc4F)o3)cc2nn1` [Example 48, 2-(2-fluorobenzyl)-5-(2-(3-methoxycinnolin-7-yl)-6-methylpyridin-3-yl)oxazole] was run?
**A.** 19 nM

**Q.** How did the EC50 turn out when `CC1(Cc2ncc(-c3cc4c(nc3-c3ccc5ccc(F)nc5c3)C(O)CC4)o2)CCCC1` (centres unmarked) [Example 42, 2-(2-fluoroquinolin-7-yl)-3-(2-((1-methylcyclopentyl)methyl)oxazol-5-yl)-6,7-dihydro-5H-cyclopenta[b]pyridin-7-ol] was run?
**A.** 65 nM

**Q.** `N#Cc1ccc(-c2cnc(CC(F)C3CC3)o2)c(-c2ccc3cccnc3c2)n1` (centres unmarked) [Example 69, 5-(2-(2-cyclopropyl-2-fluoroethyl)oxazol-5-yl)-6-(quinolin-7-yl)picolinonitrile] was tested. Which EC50 did it give?
**A.** 41 nM

**Q.** How did the EC50 turn out when `CC1(Cc2ncc(-c3ccc(C#N)nc3N3CCn4ccnc4C3)o2)CCCC1` [Example 9, 6-(5,6-dihydro-imidazo[1,2-a]-pyrazin-7(8H)-yl)-5-(2-((1-methyl-cyclopentyl)-methyl)oxazol-5-yl)picolinonitrile] was run?
**A.** 108 nM

**Q.** Which EC50 does the source give for `N#Cc1ccc(-c2cnc(CC3(F)CCCC3)o2)c(-c2ccn3ccnc3c2)n1` [Example 76, 5-(2-((1-fluorocyclopentyl)methyl)oxazol-5-yl)-6-(imidazo [1,2-a]pyridin-7-yl) picolinonitrile] here?
**A.** 15 nM

**Q.** `CCC(F)(CC)Cc1ncc(-c2ccc(C#N)nc2-c2ccc3cccnc3c2)o1` [Example 74, 5-(2-(2-ethyl-2-fluorobutyl)oxazol-5-yl)-6-(quinolin-7-yl)picolinonitrile] was tested. Which EC50 did it give?
**A.** 138 nM

**Q.** Which EC50 does the source give for `CC(C)(Cc1ncc(-c2ccc(C#N)nc2-c2ccn3ccnc3c2)o1)C(F)(F)F` [Example 28, 6-(imidazo[1,2-a]-pyridin-7-yl)-5-(2-(3,3,3-trifluoro-2,2-dimethylpropyl)-oxazol-5-yl)picolino-nitrile] here?
**A.** 122 nM

**Q.** How did the EC50 turn out when `CN1Cc2ccc(-c3nc(C#N)ccc3-c3cnc(CC4(C)CCCC4)o3)cc2C1=O` [Example 6, 6-(2-methyl-3-oxo-isoindolin-5-yl)-5-(2-((1-methyl-cyclopentyl)methyl)-oxazol-5-yl)picolino-nitrile] was run?
**A.** 14 nM

**Q.** For `CN1Cc2ncc(-c3nc4c(cc3-c3cnc(CC5CCCC5)o3)CCC4)cc2C1=O` [Example 53, 3-(3-(2-(cyclopentylmethyl)oxazol-5-yl)-6,7-dihydro-5H-cyclopenta[b]pyridin-2-yl)-6-methyl-6,7-dihydro-5H-pyrrolo[3,4-b] pyridin-5-one], which EC50 is on record?
**A.** 153 nM

**Q.** For `CCC(C)(F)Cc1ncc(-c2ccc(C#N)nc2-c2ccn3cc(C)nc3c2)o1` (centres unmarked) [Example 90, 5-(2-(2-fluoro-2-methylbutyl)oxazol-5-yl)-6-(2-methylimidazo [1,2-a]pyridin-7-yl)picolinonitrile], which EC50 is on record?
**A.** 31 nM
